The target of one assay is BTK (C481S) (Homo sapiens (Human), UniProt Q06187, C481S). Put plainly: BTK C481S enzyme experiment (ADP-Glo kinase assay). Conditions: 10 nM BTK C481S, ATP 125 μM, Poly(Glu4, Tyr1), 90 minutes at 20° C. The assay is classed as biochemical. The essentials: (§1)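 Wild-type or C481S BTK, added as 2× solution at 10 nM, preincubated 10 min with 3-fold compound dilutions in 50 mM HEPES pH 7.5, 10 mM MgCl2, 2 mM DTT, 0.0015% Brij-35. ADP-Glo luminescence norm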

The target in a further assay is BTK (Homo sapiens (Human), UniProt Q06187). Description: BTK enzyme experiment (ADP-Glo kinase assay). The assay is classed as biochemical. The conditions noted are these: 10 nM BTK, ATP 125 μM, Poly(Glu4, Tyr1), 90 minutes at 20° C.; read-out: BTK(WT) IC50. A digest of the protocol:
as §1

Another assay deals with TMD-8 cells. Put plainly: TMD-8 proliferation inhibition experiment. The assay is classed as cell-based. The conditions noted are these: human diffuse large B lymphoma cells, three days incubation. As to the method: TMD-8 cells are human diffuse large B lymphoma (Mingzhou Bio, MZ-0832), cultured in 10% FBS+1% PS 1640 medium; OCI-LY10 is human diffuse large B lymphoma (BeNa Culture Collection, BNCC337742), cultured in 10% FBS+1% PS IMDM. Day 1: Cells at logarithmic growth phase were taken, counted and inoculated 600 TMD-8 or 2000 OCI-LY10 cells in a 384-well cell culture plate and cultured overnight. Day 2: A 3-fold gradient concentration stock solution of 400× compound was prepared with DMSO, and diluted 40-fold to a 10× compound stock solution with culture medium. The 10× compound stock solution was added to each cell culture well with a final concentration of 1× compound stock solution and a DMSO content of 0.25%. DMSO was used as experimental control, and culture medium was used as blank control. The incubation was continued for three days after compound addition. On the fifth day, 25 μL of […] was added to each well, mixed well and incubated for 10 minutes, then the chemiluminescence value (RLU value) was read. The cell proliferation inhibition rate (%)=(RLUcontrol−RLUcompound)/(RLUcontrol−RLUblank)×100% was calculated. The compound gradient dilution concentration and the corresponding cell proliferation inhibition rate were fit by using XLFit four-parameter method, and IC50 value was calculated.

One may read the IC50 as the concentration that gives 50% inhibition.

Where a name gives a salt, the structure may show the parent alone.

BTK (C481S), sequence (Q06187 whole entry C481S): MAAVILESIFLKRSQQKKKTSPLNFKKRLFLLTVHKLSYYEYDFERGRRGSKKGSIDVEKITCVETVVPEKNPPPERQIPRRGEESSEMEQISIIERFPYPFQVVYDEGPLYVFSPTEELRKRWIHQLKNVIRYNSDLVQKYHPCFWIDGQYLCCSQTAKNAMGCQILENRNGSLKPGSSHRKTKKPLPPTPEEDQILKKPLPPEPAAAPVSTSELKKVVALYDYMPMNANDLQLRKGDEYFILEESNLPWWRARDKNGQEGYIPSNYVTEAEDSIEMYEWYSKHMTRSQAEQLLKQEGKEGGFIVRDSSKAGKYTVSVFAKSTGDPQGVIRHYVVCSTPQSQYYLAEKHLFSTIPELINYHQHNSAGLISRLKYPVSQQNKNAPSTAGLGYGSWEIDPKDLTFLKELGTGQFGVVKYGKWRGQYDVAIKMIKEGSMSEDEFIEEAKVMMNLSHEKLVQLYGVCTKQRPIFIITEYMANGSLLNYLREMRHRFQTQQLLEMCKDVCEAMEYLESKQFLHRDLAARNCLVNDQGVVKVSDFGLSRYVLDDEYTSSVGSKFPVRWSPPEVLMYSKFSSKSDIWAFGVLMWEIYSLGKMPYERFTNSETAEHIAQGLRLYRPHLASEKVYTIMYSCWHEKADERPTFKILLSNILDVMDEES
BTK, sequence (Q06187 whole entry): as the sequence (Q06187 whole entry C481S) above, with S481C counted along it

Regarding `COCC1(C)Nc2c(cnc3[nH]cc(C(=O)c4ccc(Oc5ccccc5)cc4Cl)c23)N(C)C1=O` (single isomer, unassigned) [Z52-1, 9-(2-chloro-4-phenoxybenzoyl)-2-(methoxymethyl)-2,4-dimethyl-1,2,4,7-tetrahydro-3H-pyrrolo[3′,2′:5,6]pyrido[3,4-b]pyrazin-3-one], the IC50 against BTK (C481S) amounted to 24.2 nM; on BTK it was 23.8 nM; with TMD-8 cells (Homo sapiens, TMD8, 72 h) it was 201 nM.

As for `[2H]C([2H])([2H])OC[C@@]1(C)Nc2c(cnc3[nH]cc(C(=O)c4ccc(Oc5ccccc5)cc4Cl)c23)NC1=O` (single isomer, unassigned) [Z66-2], the IC50 came out at 8.6 nM against BTK (C481S); 12.7 nM on BTK; 299 nM in the assay with TMD-8 cells (Homo sapiens, TMD8, 72 h).

For the compound `COCCOCC1(C)Nc2c(cnc3[nH]cc(C(=O)c4ccc(Oc5ccccc5)cc4Cl)c23)NC1=O` (single isomer, unassigned) [Z153-1, 9-(2-chloro-4-phenoxybenzoyl)-2-((2-methoxyethoxy)methyl)-2-methyl-1,2,4,7-tetrahydro-3H-pyrrolo[3′,2′:5,6]pyrido[3,4-b]pyrazin-3-one], the IC50 against BTK (C481S) was determined as 26 nM; at BTK, 45.8 nM; with TMD-8 cells (Homo sapiens, TMD8, 72 h) it was 342 nM.

Consider `O=C(c1ccc(Oc2ccccc2)cc1Cl)c1c[nH]c2ncc3c(c12)NC1(CCOC1)C(=O)N3` (stereo not drawn) [Z1, 9′-(2-chloro-4-phenoxybenzoyl)-4,4′,5,7′-tetrahydro-2H-spiro[furan-3,2′-pyrrolo[3′,2′:5,6]pyrido[3,4-b]pyrazin]-3′(1′H)-one], for which the half-maximal inhibitory concentration (IC50) at BTK (C481S) came to 18.9 nM; at BTK, 41.2 nM; in the assay with TMD-8 cells (Homo sapiens, TMD8, 72 h), 156 nM.

Regarding `CN1CCC2(C1)Nc1c(cnc3[nH]cc(C(=O)c4ccc(Oc5ccccc5F)cc4Cl)c13)NC2=O` (stereo not drawn) [Z6], the results for the IC50 at BTK (C481S), at BTK and in the assay with TMD-8 cells were 14.1 nM, 19.3 nM and 151 nM, respectively.

Take `CN1CCC2(C1)Nc1c(cnc3[nH]cc(C(=O)c4ccc(Oc5cccc(F)c5)cc4Cl)c13)NC2=O` (stereo not drawn) [Z7]: the IC50 on BTK (C481S) stood at 17.8 nM; at BTK, 28.3 nM; with TMD-8 cells, 258 nM.

Consider `CN1CCC2(C1)Nc1c(cnc3[nH]cc(C(=O)c4ccc(Oc5ccccc5)cc4Cl)c13)N(C)C2=O` (stereo not drawn) [Z8], for which the IC50 came out at 27.9 nM on BTK (C481S), 73.6 nM on BTK and 469 nM in the assay with TMD-8 cells.

With `O=C(c1ccc(Oc2ccccc2)cc1Cl)c1c[nH]c2ncc3c(c12)NC1(CCN(C(=O)C2CC2)C1)C(=O)N3` (stereo not drawn) [Z10], the IC50 on BTK (C481S) worked out at 25.4 nM; at BTK it was 70.2 nM; with TMD-8 cells, 310 nM.

As for `CN1CC2(C1)Nc1c(cnc3[nH]cc(C(=O)c4ccc(Oc5ccccc5)cc4Cl)c13)NC2=O` [Z11, 9′-(2-chloro-4-phenoxybenzoyl)-1-methyl-4′,7′-dihydrospiro[azetidine-3,2′-pyrrolo[3′,2′:5,6]pyrido[3,4-b]pyrazin]-3′(1′H)-one], the IC50 at BTK (C481S) is 21.3 nM; on BTK it was 54.4 nM; with TMD-8 cells (Homo sapiens, TMD8, 72 h), 372 nM.

As to `CN1CCC2(C1)Nc1c(cnc3[nH]cc(C(=O)c4ccc(Oc5cc(C(F)(F)F)ccn5)cc4Cl)c13)NC2=O` (stereo not drawn) [Z12], the IC50 on BTK (C481S) was determined as 45.8 nM; on BTK, 26.4 nM; in the assay on TMD-8 cells it was 480 nM.

On to `COC[C@@]1(C)Nc2c(cnc3[nH]cc(C(=O)c4ccc(Oc5ccccc5)cc4Cl)c23)NC1=O` [Z13-2], for which the IC50 at BTK (C481S) came out at 23.2 nM; on BTK, 40 nM; with TMD-8 cells, 183 nM.

Turning to `CC1(C)Nc2c(cnc3[nH]cc(C(=O)c4ccc(Oc5ccccc5)cc4Cl)c23)N(CCO)C1=O` [Z15], the IC50 was 71.7 nM at BTK (C481S), 57.4 nM on BTK and 626 nM in the assay on TMD-8 cells.

Turning to `COC1CCC2(C1)Nc1c(cnc3[nH]cc(C(=O)c4ccc(Oc5ccccc5)cc4Cl)c13)NC2=O` (stereo not drawn) [Z25, 9′-(2-chloro-4-phenoxybenzoyl)-3-methoxy-4′,7′-dihydrospiro[cyclopentane-1,2′-pyrrolo[3′,2′:5,6]pyrido[3,4-b]pyrazin]-3′(1′H)-one], the IC50 against BTK (C481S) came out at 4.9 nM; on BTK it was 6 nM; with TMD-8 cells (Homo sapiens, TMD8, 72 h), 130 nM.

On to `CN1C(=O)C(C)(CO)Nc2c1cnc1[nH]cc(C(=O)c3ccc(Oc4ccccc4)cc3Cl)c21` (stereo not drawn) [Z51, 9-(2-chloro-4-phenoxybenzoyl)-2-(hydroxymethyl)-2,4-dimethyl-1,2,4,7-tetrahydro-3H-pyrrolo[3′,2′:5,6]pyrido[3,4-b]pyrazin-3-one], for which the IC50 on BTK (C481S) is 39.6 nM; at BTK it was 36.5 nM; in the assay on TMD-8 cells (Homo sapiens, TMD8, 72 h) it was 259 nM.

As for `COCC1(C)Nc2c(cnc3[nH]cc(C(=O)c4ccc(Oc5cc(C)ccn5)cc4Cl)c23)N(C)C1=O` (stereo not drawn) [Z65, 9-(2-chloro-4-((4-methylpyridin-2-yl)oxy)benzoyl)-2-(methoxymethyl)-2,4-dimethyl-1,2,4,7-tetrahydro-3H-pyrrolo[3′,2′:5,6]pyrido[3,4-b]pyrazin-3-one formate], the IC50 was determined as 31.2 nM against BTK (C481S); 30.6 nM at BTK; 509 nM with TMD-8 cells (Homo sapiens, TMD8, 72 h).

In the case of `[2H]C([2H])([2H])OCC1(C)Nc2c(cnc3[nH]cc(C(=O)c4ccc(Oc5ccccc5)cc4Cl)c23)NC1=O` (stereo not drawn) [Z66, 9-(2-chloro-4-phenoxybenzoyl)-2-((methoxy-d3)methyl)-2-methyl-1,2,4,7-tetrahydro-3H-pyrrolo[3′,2′:5,6]pyrido[3,4-b]pyrazin-3-one], the IC50 turned out to be 9.3 nM against BTK (C481S); 16.4 nM at BTK; 146 nM with TMD-8 cells (Homo sapiens, TMD8, 72 h).

Turning to `CCOCC1(C)Nc2c(cnc3[nH]cc(C(=O)c4ccc(Oc5ccccc5)cc4Cl)c23)NC1=O` (stereo not drawn) [Z67, 9-(2-chloro-4-phenoxybenzoyl)-2-(ethoxymethyl)-2-methyl-1,2,4,7-tetrahydro-3H-pyrrolo[3′,2′:5,6]pyrido[3,4-b]pyrazin-3-one], the IC50 at BTK (C481S) is 18.3 nM; on BTK it was 40 nM; in the assay on TMD-8 cells (Homo sapiens, TMD8, 72 h), 262 nM.

With `COCC1(C)Nc2c(cnc3[nH]cc(C(=O)c4ccc(Oc5ccccc5)cc4F)c23)NC1=O` (stereo not drawn) [Z71], the IC50 came out at 21.3 nM on BTK (C481S), 20.2 nM at BTK and 171 nM in the assay on TMD-8 cells.

As for `Cc1ccnc(Oc2ccc(C(=O)c3c[nH]c4ncc5c(c34)NC3(CCOCC3)C(=O)N5C)c(Cl)c2)c1` [Z72, 9′-(2-chloro-4-((4-methylpyridin-2-yl)oxy)benzoyl)-4′-methyl-2,3,4′,5,6,7′-hexahydrospiro[pyran-4,2′-pyrrolo[3′,2′:5,6]pyrido[3,4-b]pyrazin]-3′(1′H)-one], the IC50 against BTK (C481S) was determined as 37.2 nM; at BTK, 40 nM; with TMD-8 cells (Homo sapiens, TMD8, 72 h) it was 404 nM.

As for `COCC1(C)Nc2c(cnc3[nH]cc(C(=O)c4ccc(Oc5cc(C6CC6)ccn5)cc4Cl)c23)NC1=O` (stereo not drawn) [Z73, 9-(2-chloro-4-((4-cyclopropylpyridin-2-yl)oxy)benzoyl)-2-(methoxymethyl)-2-methyl-4,7-dihydro-1H-pyrrolo[3′,2′:5,6]pyrido[3,4-b]pyrazin-3(2H)-one], the IC50 against BTK (C481S) is 14.5 nM; on BTK it was 22.8 nM; in the assay on TMD-8 cells (Homo sapiens, TMD8, 72 h), 209 nM.

With `COCC[C@@]1(C)Nc2c(cnc3[nH]cc(C(=O)c4ccc(Oc5ccccc5)cc4Cl)c23)NC1=O` [Z78-1], the figures for the IC50 against BTK (C481S), at BTK and in the assay with TMD-8 cells were 28.8 nM, 27.6 nM and 289 nM, respectively.

Consider `COC[C@]1(C)Nc2c(cnc3[nH]cc(C(=O)c4ccc(Oc5cccc(C)n5)cc4Cl)c23)NC1=O` [Z124-1, (S)-9-(2-chloro-4-((6-methylpyridin-2-yl)oxy)benzoyl)-2-(methoxymethyl)-2-methyl-1,2,4,7-tetrahydro-3H-pyrrolo[3′,2′:5,6]pyrido[3,4-b]pyrazin-3-one], for which the IC50 on BTK (C481S) is 30.1 nM; on BTK, 24.5 nM; in the assay on TMD-8 cells (TMD8, 72 h), 199 nM.

Regarding `COC1CCC2(C1)Nc1c(cnc3[nH]cc(C(=O)c4ccc(Oc5cc(C)ccn5)cc4Cl)c13)NC2=O` (stereo not drawn) [Z126, 9′-(2-chloro-4-((4-methylpyridin-2-yl)oxy)benzoyl)-3-methoxy-4′,7′-dihydrospiro[cyclopentane-1,2′-pyrrolo[3′,2′:5,6]pyrido[3,4-b]pyrazin]-3′(1′H)-one], the IC50 on BTK (C481S) stood at 13.4 nM; at BTK, 5.7 nM; with TMD-8 cells (Homo sapiens, TMD8, 72 h) it was 183 nM.

Regarding `COC[C@]1(C)Nc2c(cnc3[nH]cc(C(=O)c4ccc(Oc5cccc(C#N)c5)cc4Cl)c23)NC1=O` [Z131, (S)-3-(3-chloro-4-(2-(methoxymethyl)-2-methyl-3-oxo-2,3,4,7-tetrahydro-1H-pyrrolo[3′,2′:5,6]pyrido[3,4-b]pyrazine-9-carbonyl)phenoxy)benzonitrile], the IC50 turned out to be 37.8 nM against BTK (C481S); 26.9 nM at BTK; 307 nM in the assay on TMD-8 cells (Homo sapiens, TMD8, 72 h).

Source of the values: US20240360154A1, “AROYL SUBSTITUTED TRICYCLIC COMPOUND, PREPARATION METHOD THEREFOR AND USE THEREOF” (GENFLEET THERAPEUTICS (SHANGHAI) INC., priority 2020, published 2024).
